Experimental data taken from patent EP4721737A1, “USE OF PHARMACEUTICAL COMPOSITION COMPRISING COMPOUND HAVING BIS(AZANYLYLIDENE) SULFONYL STRUCTURE FOR TREATING ANEMIA-RELATED DISEASES” (Scinnohub Pharmaceutical Co., Ltd., priority 2023, dated 2024).

Key:
[1] = target: recombinant human PKR (Homo sapiens, UniProt P30613); experiment: pyruvate kinase (PKR) activity test, activation of recombinant enzyme (fluorescence kit); assay type: biochemical
Method: To test the activation effect of the compound of the present disclosure on recombinant human PKR.
3.1 A recombinant human PKR enzyme solution was prepared at a concentration of 60 ng/well (a 20 µL reaction system), and 5 µL of the solution was added into each well of a black transparent bottom 384-well plate.
3.2 Compound solutions were prepared at different concentrations, with the final concentrations of 1000/300/100 nM (containing 1% DMSO). Each 5 µL of the compound solution was added into the plate in step 3.1 and mixed well. The plate was incubated at room temperature for 10 min.
3.3 A reaction system was prepared according to the instructions of a kit (as shown in the table below), and 10 µL of the reaction system was added into each well of the 384-well plate, and mixed uniformly with the solution in step 3.2.
3.4 The 384-well plate was placed on a microplate reader to detect the fluorescence value at 540/590 nm, where the value was read every 2 minutes and the detection was conducted continuously for 1 hour.
3.5 The Slope value within the detection time was calculated, and the 1% DMSO well was used as a control well to calculate a compound activation rate. Activation rate % = (Slopeofcompoundwell/Slopeofcontrolwell) × 100% [formula]
With the log value of the compound concentration as the X axis and the percentage activation rate as the Y axis, a dose-effect curve was fitted with the log(agonist) vs. response-variable slope of the analysis software GraphPad Prism 5, and the AC50 value of the activity of each compound against PKR was obtained. Y = min + (max−min)/(1+10^(∧)((LogAC50−X)×Hillslope)). [formula]

[2] = target: T1, PKR in ex vivo red blood cells from healthy individuals (Homo sapiens, UniProt P30613); experiment: ex vivo pyruvate kinase (PKR) activity experiment, red blood cells of healthy individuals; assay type: cell-based; conditions: 3 hours co-cultivation
T1 construct: endogenous in cells; host or cells: human red blood cells isolated from fresh peripheral blood of healthy individuals
T1 sequence (P30613 whole entry): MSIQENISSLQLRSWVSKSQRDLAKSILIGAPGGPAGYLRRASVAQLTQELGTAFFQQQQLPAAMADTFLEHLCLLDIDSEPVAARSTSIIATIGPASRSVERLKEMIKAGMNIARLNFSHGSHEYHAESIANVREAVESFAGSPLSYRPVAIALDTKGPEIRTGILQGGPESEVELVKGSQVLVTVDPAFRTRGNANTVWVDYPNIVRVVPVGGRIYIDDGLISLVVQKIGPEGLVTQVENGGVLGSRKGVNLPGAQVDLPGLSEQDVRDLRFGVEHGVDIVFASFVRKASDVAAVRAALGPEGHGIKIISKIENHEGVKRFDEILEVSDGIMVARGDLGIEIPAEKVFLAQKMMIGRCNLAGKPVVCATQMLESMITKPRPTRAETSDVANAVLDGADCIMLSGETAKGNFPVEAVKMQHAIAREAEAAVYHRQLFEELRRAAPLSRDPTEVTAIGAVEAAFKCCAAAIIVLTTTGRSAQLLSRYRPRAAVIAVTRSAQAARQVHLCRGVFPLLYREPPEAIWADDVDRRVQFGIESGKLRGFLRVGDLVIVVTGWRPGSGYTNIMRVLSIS
Method: To test the effects of the compound of the present disclosure on PKR activation in ex vivo red blood cells from healthy individuals and patients with thalassemia.
• i. 5 g of glucose, 85 mg of adenine, and 2.625 g of mannitol were weighed and added into a 50 mL centrifuge tube. 40 mL of PBS was added to dissolve (sonicate for 30 minutes until completely dissolved). The solution was filtered through a 0.22 µm filter, then added to 460 mL of sterile PBS and mixed thoroughly.
• i. Fresh human peripheral blood was collected. K2EDTA was used as the anticoagulant. 1 part anticoagulant with 9 parts blood was mixed, then centrifuged at 500 g for 10 minutes at room temperature to remove the plasma. • ii. Packed red blood cells: 1.5 volumes of PBS were added, then centrifuged at 2000 ×g for 5 minutes at room temperature. After centrifugation, the supernatant was removed. This step was repeated twice. • iii. Diluted red blood cells: 1.5 volumes of PBS were added, then resuspended and mixed thoroughly. • iv. The diluted red blood cells were slowly added to 0.5 volume of 70% isotonic solution (e.g., 7.5 mL of diluted red blood cells + 3 mL of 70% isotonic solution Percoll) and centrifuged at 4000 ×g for 20 minutes at 4°C. • v. The supernatant was removed. The red blood cells at the bottom were washed once with 4-5 mL of PBS to elute the Percoll gel, and then centrifuged at 2000 ×g for 5 minutes at room temperature. • vi. The supernatant was removed. The red blood cells were counted and then diluted in AGAM medium containing 10% FBS to a density of 2 × 10^8 cells/mL for storage at 4°C.
i. The red blood cells were seeded into a 96-well plate at a uniform density of 1 × 10^7 cells/mL, with 100 µL per well. The test compounds (dissolved in DMSO) were diluted and added to the cell culture medium, resulting in final compound concentrations of 3000, 1000, 300, 100, 10, 3, and 1 nM (with 1% DMSO). The cells and compounds were co-cultivated for 3 hours in a 37°C incubator with 5% CO2. Subsequently, the plate was centrifuged at 2000 g for 20 minutes, and the supernatant was discarded. 100 µL of red blood cell lysis buffer was added to the cell pellet, vortexed for 20 minutes, and centrifuged at 4000 g for 5 minutes. The supernatant was collected for analysis. ii. The reaction system was prepared according to the kit instructions (shown as the table below), 10 µL of the reaction system was added to each well of a 384-well plate, and 10 µL of red blood cell lysis buffer was took and mixed well (20 µL reaction system).
iii. A black, transparent-bottomed 384-well plate was placed in a microplate reader to measure fluorescence at 540/590 nm. The fluorescence was read every 2 minutes for 1 hour.
i. The Slope value was calculated over the assay time. Compound activation percentage was calculated using the 1% DMSO well as the control well. Activation percentage = (Slope of compound well / Slope of control well) × 100% ii. Dose-response curve was fit using the logarithmic compound concentration on the X-axis and the percent activation percentage on the Y-axis, the log(agonist) vs. response - variable slope function in GraphPad Prism 5 was used to determine the AC50 value for each compound on PKR activity. Y = min + (max−min)/(1+10^(∧)((LogAC50−X)×Hillslope)). [formula] The PKR agonist effects of the compound of the present disclosure on ex vivo red blood cells from healthy individuals and thalassemia patients were determined using the above assay. The AC50 values measured on ex vivo red blood cells from healthy individuals are as follows (A represents 0-100 nM, B represents 101-300 nM, and C represents 300-1000 nM): […]

recombinant human PKR, sequence (P30613 whole entry): as above

Structure (SMILES) | AC50 [1] | AC50 [2]
O=C(C(CO)c1ccccc1)N1CC(=C2CN(S(=O)(=O)c3ccc(OC(F)F)cc3)C2)C1 (stereo not drawn) [Compound 6, 1-(1'-((4-(difluoromethoxy)phenyl)sulfonyl)-1',4'-dihydro-2H,2'H-[3,3'-diazetidinylidene]-1(4H)-yl)-3-hydroxy-2-phenylpropan-1-one] | < 100 nM | 101 to 300 nM
O=C(C(O)c1ccccc1)N1CC(=C2CN(S(=O)(=O)c3ccc(OC(F)F)cc3)C2)C1 (stereo not drawn) [Compound 8, 1-(1'-((4-(difluoromethoxy)phenyl)sulfonyl)-1',4'-dihydro-2H,2'H-[3,3'-diazetidinylidene]-1(4H)-yl)-2-hydroxy-2-phenylethan-1-one] | 300 to 1000 nM | < 100 nM
O=C(N1CC(=C2CN(S(=O)(=O)c3ccc(OC(F)F)cc3)C2)C1)C1(c2ccccc2)CCOCC1 [Compound 14, (1'-((4-(difluoromethoxy)phenyl)sulfonyl)-1',4'-dihydro-2H,2'H-[3,3'-diazetidinylidene]-1(4H)-yl)(4-phenyltetrahydro-2H-pyran-4-yl)methanone] | 101 to 300 nM | 101 to 300 nM
O=C(C(CO)c1ccc(F)cc1)N1CC(=C2CN(S(=O)(=O)c3ccc4c(c3)OCCO4)C2)C1 (stereo not drawn) [Compound 18, 1-(1'-((2,3-dihydrobenzo[b][1,4]dioxin-6-yl)sulfonyl)-1',4'-dihydro-2H,2'H-[3,3'-diazetidinylidene]-1 (4H)-yl)-2-(4-fluorophenyl)-3-hydroxypropan-1-one] | < 100 nM | < 100 nM
O=C(C(CO)c1ccc(F)cc1)N1CC(=C2CN(S(=O)(=O)c3cnc4c(c3)OCCO4)C2)C1 (stereo not drawn) [Compound 19, 1-(1'-((2,3-dihydro-[1,4]dioxolane[2,3-b]pyridin-7-yl)sulfonyl)-1',4'-dihydro-2H,2'H-[3,3'-diazetidinylidene]-1(4H)-yl)-2-(4-fluorophenyl)-3-hydroxypropan-1-one] | 101 to 300 nM | 300 to 1000 nM
NC(C(=O)N1CC(=C2CN(S(=O)(=O)c3ccc(OC(F)F)cc3)C2)C1)c1ccccc1 (stereo not drawn) [Compound 21, 2-amino-1-(1'-((4-(difluoromethoxy)phenyl)sulfonyl)-1',4'-dihydro-2H,2'H-[3,3'-diazetidinylidene]-1 (4H)-yl)-2-phenylethan-1-one] | 300 to 1000 nM | < 100 nM
CNCC(C(=O)N1CC(=C2CN(S(=O)(=O)c3ccc4c(c3)OCCO4)C2)C1)c1cccc(Cl)c1 (stereo not drawn) [Compound 26, 2-(3-chlorophenyl)-1-(1'-((2,3-dihydrobenzo[b][1,4]dioxin-6-yl)sulfonyl)-1',4'-dihydro-2H,2'H-[3,3'-diazetidinylidene]-1(4H)-yl)-3-(methylamino)propan-1-one] | < 100 nM | 300 to 1000 nM
O=C([C@H](CO)c1ccccc1)N1CC(=C2CN(S(=O)(=O)c3ccc(-c4ncco4)c(F)c3)C2)C1 [Compound 27, (S)-1-(1'-((3-fluoro-4-(oxazol-2-yl)phenyl)sulfonyl)-1',4'-dihydro-2H,2'H-[3,3'-diazetidinylidene]-1(4 H)-yl)-3-hydroxy-2-phenylpropan-1-one] | 300 to 1000 nM | 300 to 1000 nM
O=C(N1CC(=C2CN(S(=O)(=O)c3ccc4ncsc4c3)C2)C1)C1(c2ccccc2)CCOCC1 [Compound 29, (1'-(benzo[d]thiazol-6-ylsulfonyl)-1',4'-dihydro-2H,2'H-[3.3'-diazetidinylidene]-1(4H)-yl)(4-phenyltetrahydro-2H-pyran-4-yl)methanone] | < 100 nM | < 100 nM
Cc1nc2ccc(S(=O)(=O)N3CC(=C4CN(C(=O)[C@H](CO)c5ccccc5)C4)C3)cc2s1 [Compound 35, (S)-3-hydroxy-1-(1'-((2-methylbenzo[d]thiazol-6-yl)sulfonyl)-1',4'-dihydro-2H,2'H-[3,3'-diazetidinylidene]-1(4H)-yl)-2-phenylpropan-1-one] | < 100 nM | < 100 nM
CN1CCOc2ccc(S(=O)(=O)N3CC(=C4CN(C(=O)[C@H](CO)c5ccccc5)C4)C3)cc21 [Compound 39, (S)-3-hydroxy-1-(1'-((4-methyl-3,4-dihydro-2H-benzo[b][1,4]oxazin-6-yl)sulfonyl)-1',4'-dihydro-2H, 2'H-[3,3'-diazetidinylidene]-1(4H)-yl)-2-phenylpropan-1-one] | < 100 nM | < 100 nM
O=C(Cc1ccccc1)N1CC(=C2CN(S(=O)(=O)c3ccc4ncsc4c3)C2)C1 [Compound 47, 1-(1'-(benzo[d]thiazol-6-ylsulfonyl)-1',4'-dihydro-2H,2'H-[3,3'-diazetidinylidene]-1(4H)-yl)-2-phenyl ethan-1-one] | 300 to 1000 nM | 300 to 1000 nM
O=C([C@H](CO)c1ccccc1)N1CC(=C2CN(S(=O)(=O)c3cccnc3)C2)C1 [Compound 68, (S)-3-hydroxy-2-phenyl-1-(1'-(pyridin-3-ylsulfonyl)-1',4'-dihydro-2H,2'H-[3,3'-diazetidinylidene]-1(4H)-yl)propane-1-one] | – | 101 to 300 nM
N#Cc1ccc(S(=O)(=O)N2CC(=C3CN(C(=O)[C@H](CO)c4ccccc4)C3)C2)nc1 [Compound 70, (S)-6-((1'-(3-hydroxy-2-phenylpropionyl)-1',4'-dihydro-2H,2'H-[3,3'-diazetidinylidene]-1(4H)-yl)sulfonyl)nicotinonitrile] | – | 101 to 300 nM
O=C(C(CO)c1ccc(C(F)F)cc1)N1CC(=C2CN(S(=O)(=O)c3ccccn3)C2)C1 (stereo not drawn) [Compound 71, 2-(4-(difluoromethyl)phenyl)-3-hydroxy-1-(1'-(pyridin-2-ylsulfonyl)-1',4'-dihydro-2H,2'H-[3,3'-diazetidinylidene]-1(4H)-y 1)propan-1-one] | – | 101 to 300 nM
CC(C)Oc1ccc(S(=O)(=O)N2CC(=C3CN(C(=O)[C@H](CO)c4ccccc4)C3)C2)nc1 [Compound 81, (S)-3-hydroxy-1-(1'-((5-isopropoxypyridin-2-yl)sulfonyl)-1',4'-dihydro-2H,2'H-[3,3'-diazetidinylidene]-1(4H)-yl)-2-phenylpropan-1-one] | – | 300 to 1000 nM
O=C([C@H](CO)c1ccccc1)N1CC(=C2CN(S(=O)(=O)c3ccc(OC4CC4)cn3)C2)C1 [Compound 82, (S)-1-(1'-((5-cyclopropoxypyridin-2-yl)sulfonyl)-1',4'-dihydro-2H,2'H-[3,3'-diazetidinylidene]-1(4H) -yl)-3-hydroxy-2-phenylpropan-1-one] | – | 101 to 300 nM
O=C(C(CO)C1CCCCC1)N1CC(=C2CN(S(=O)(=O)c3ccccn3)C2)C1 (stereo not drawn) [Compound 90, 2-cyclohexyl-3-hydroxy-1-(1'-(pyridin-2-ylsulfonyl)-1',4'-dihydro-2H,2'H-[3,3'-diazetidinylidene]-1(4H)-yl)propan-1-one] | – | 300 to 1000 nM
